Results on twelve compounds are retold here after ChEMBL document CHEMBL1201862, “PubChem BioAssay data set” (2004).

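Growth conditions: 96-well plates. Treatment: test compound, 48 hours, 5 concentrations. Analysis: linear interpolation between bracketing concentrations; unreached endpoints set to highest concentration. Here, GI50 denotes the concentration required for 50% inhibition of growth.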 The source made the active and inactive calls. Cut-off read from the data, not from the text of the source: active = GI50 up to about 1.1 µM and inactive = higher. Where only a bound is given, the exact number is not on record here.

Assay in all cases: NCI tumour cell line growth inhibition, 48 h
The subject of assay [1] is OVCAR-5.
Assay [2] concerns SK-MEL-2.
Assay [3] has as its system HOP-62.
In assay [4] the test system is T47D.
Assay [5] has as its system SNB-19.
In assay [6] the test system is UACC-257.
Assay [7] deals with DU-145.
Assay [8] concerns SK-MEL-28.
In assay [9] the test system is OVCAR-4.
Assay [10] deals with MDA-MB-231.
Assay [11] concerns TK-10.
The test system of assay [12] is OVCAR-8.
Assay [13] concerns A549.
For assay [14], the system named is MOLT-4.
Assay [15] relates to MCF7.
Assay [16] deals with SW-620.
The test system of assay [17] is EKVX.
Assay [18] relates to KM12.
The test system of assay [19] is SK-OV-3.
The test system of assay [20] is MDA-N.

As for `CC(C)(C)c1cc(C2COC(=O)COCCOCC(=O)OCCOCCO2)cc(C(C)(C)C)c1O` (centres undefined), the GI50 was 21.7 µM (inactive) in assay [1]; > 100 µM (inactive) in [2]; 36.2 µM (inactive) in [3]; 29.2 µM (inactive) in assay [4]; > 100 µM (inactive) in [5]; > 71.6 µM (inactive) in assay [6]. The GI50 in [7] is 19.5 µM (inactive); in assay [8] it was 37.2 µM (inactive); in [9] it was > 100 µM (inactive); in assay [10] it was 46.6 µM (inactive); in assay [11], 16.5 µM (inactive); in assay [12], 41.6 µM (inactive). For the same compound, the GI50 in assay [13] is > 100 µM (inactive); in [14] it was > 100 µM (inactive); in [15], > 100 µM (inactive); in assay [16], 53.6 µM (inactive); in [17], > 95.1 µM (inactive); in assay [18] it was > 100 µM (inactive). The GI50 in assay [19] was 32.1 µM (inactive).

Regarding `CN(C)c1ccc(/C=N/c2ccc(-c3nc4ccccc4o3)cc2)cc1`, the GI50 in [1] was > 100 µM (inactive); in assay [2], 30.6 µM (inactive); in [3] it was 35 µM (inactive); in [4], 19.4 µM (inactive); in assay [5] it was > 100 µM (inactive); in assay [6], 25.5 µM (inactive). In addition, the GI50 in assay [7] is 52.5 µM (inactive); in [8], 67.8 µM (inactive); in assay [9], 33.5 µM (inactive); in [10], 53.2 µM (inactive); in assay [11], 36.5 µM (inactive); in assay [12], 31.8 µM (inactive). In addition, the GI50 is 46.9 µM (inactive) in assay [13]; 24.7 µM (inactive) in [14]; 40.9 µM (inactive) in assay [15]; 86.3 µM (inactive) in assay [16]; 28.6 µM (inactive) in [17]; 31.8 µM (inactive) in assay [18]. In addition, the GI50 in [19] was 35 µM (inactive).

As for `CN(CCCNC(=O)c1cn(C)c2c1ccc1ccccc12)CCCNC(=O)c1cn(C)c2c1ccc1ccccc12`, the GI50 in [3] was 1.61 µM (inactive); in assay [5], 2.33 µM (inactive); in assay [6], 1.58 µM (inactive); in assay [20], 1.45 µM (inactive); in assay [7] it was 1.55 µM (inactive); in [8], 1.69 µM (inactive). For the same compound, the GI50 is 9.35 µM (inactive) in assay [9]; 1.35 µM (inactive) in assay [13]; 2.59 µM (inactive) in assay [16]; 1.7 µM (inactive) in assay [17]; 1.61 µM (inactive) in assay [18].

On to `ClCCN1CCOC1=C1C=CC=C1`, for which the GI50 in assay [1] is > 100 µM (inactive); in [3], 43.9 µM (inactive); in assay [4] it was > 100 µM (inactive); in [5], > 100 µM (inactive); in assay [6], > 100 µM (inactive); in [7], > 100 µM (inactive). In addition, the GI50 in assay [8] was > 100 µM (inactive); in [10] it was > 100 µM (inactive); in assay [12] it was > 100 µM (inactive); in assay [13] it was > 100 µM (inactive); in assay [14], 55.8 µM (inactive); in assay [15], > 100 µM (inactive). Further, the GI50 in assay [16] was > 100 µM (inactive); in assay [17] it was > 100 µM (inactive); in assay [18], 18.4 µM (inactive); in [19], > 100 µM (inactive).

As to `CC1SC2=NC3=C(c4ccccc4C3=O)C(c3ccc(Br)cc3)N2C1=O` (centres undefined), the GI50 in assay [1] was > 100 µM (inactive); in assay [2] it was 48.1 µM (inactive); in [3], > 100 µM (inactive); in assay [5] it was 38 µM (inactive); in [6] it was > 100 µM (inactive); in assay [8] it was 43 µM (inactive). The GI50 was 41.4 µM (inactive) in [9]; > 100 µM (inactive) in assay [11]; 47.3 µM (inactive) in assay [12]; 57.7 µM (inactive) in assay [13]; 31.6 µM (inactive) in assay [14]; 51.9 µM (inactive) in [16]. In addition, the GI50 in assay [17] was 60 µM (inactive); in assay [18], > 100 µM (inactive); in assay [19], > 100 µM (inactive).

As for `Cc1nc2ccccc2c(=O)n1/N=C(\N=N\c1cc(Cl)ccc1Cl)c1ccccc1`, the GI50 in assay [1] was > 100 µM (inactive); in assay [2], 60.5 µM (inactive); in assay [3], 12.4 µM (inactive); in assay [4], > 100 µM (inactive); in assay [5], 29 µM (inactive); in assay [6] it was 17.4 µM (inactive). The GI50 in assay [7] is > 100 µM (inactive); in assay [8], 47.2 µM (inactive); in assay [9] it was 51.8 µM (inactive); in [10] it was > 100 µM (inactive); in assay [11], > 93.5 µM (inactive); in assay [12], 65.9 µM (inactive). The GI50 in [13] is 71 µM (inactive); in [14] it was 35 µM (inactive); in assay [15], 8.04 µM (inactive); in assay [16] it was 32.1 µM (inactive); in assay [17], 20.7 µM (inactive); in assay [18], 10.3 µM (inactive). For the same compound, in [19], the GI50 was > 63 µM (inactive).

In the case of `N[C@H]1CCc2c1nc1c(c2-c2ccccc2)CC[C@@H]1N`, the GI50 is 18.3 µM (inactive) in assay [1]; 18.5 µM (inactive) in assay [2]; 31.7 µM (inactive) in assay [3]; 82.8 µM (inactive) in assay [5]; > 10 µM (inactive) in assay [6]; 24.2 µM (inactive) in assay [7]. Also, the GI50 in assay [9] was 50.8 µM (inactive); in assay [10] it was 18.3 µM (inactive); in assay [11], 28.3 µM (inactive); in assay [12], 39.8 µM (inactive); in [13], 34 µM (inactive); in assay [14], 8.73 µM (inactive). In addition, the GI50 in [15] is 21.8 µM (inactive); in assay [16], 12.3 µM (inactive); in assay [17], > 100 µM (inactive); in assay [18], 28.9 µM (inactive).

Consider `CCOC(=O)c1cc(-c2ccc(OC)cc2)c([N+](=O)[O-])[nH]1`, for which the GI50 is > 10 µM (inactive) in [1]; > 10 µM (inactive) in assay [2]; > 10 µM (inactive) in assay [3]; > 10 µM (inactive) in assay [5]; > 10 µM (inactive) in assay [6]; > 2.46 µM (inactive) in [20]. Besides, the GI50 in [7] was > 10 µM (inactive); in assay [8] it was > 10 µM (inactive); in [9], > 10 µM (inactive); in assay [10], 0.1 µM (active); in assay [11], > 10 µM (inactive); in [12], > 10 µM (inactive). Further, the GI50 in assay [13], in assay [14], in assay [15], in assay [16], in [17] and in [18] was > 10 µM (inactive) each time. Moreover, the GI50 in assay [19] is > 10 µM (inactive).

As to `Nc1nc2ncc(SCc3ccc(C(=O)NC(CCC(=O)O)C(=O)O)cc3)cc2c(=O)[nH]1` (centres undefined), the GI50 in [1], in assay [2], in [3], in assay [5], in assay [6] and in [20] was > 100 µM (inactive) in each case. In addition, the GI50 in assay [7], in [8], in [9], in assay [11], in assay [12] and in [13] was > 100 µM (inactive) in each case. In addition, the GI50 in assay [14], in assay [15], in assay [16], in assay [17], in assay [18] and in [19] was > 100 µM (inactive) each time.

Take `O=[N+]([O-])c1ccc(-n2nnc(C3=NCCCN3)c2-c2ccc(Cl)cc2)cc1`: the GI50 was > 100 µM (inactive) in assay [1]; 33.5 µM (inactive) in assay [2]; > 100 µM (inactive) in assay [3]; > 100 µM (inactive) in [5]; 67.1 µM (inactive) in [6]; 32.7 µM (inactive) in assay [8]. Besides, the GI50 in assay [9] was > 100 µM (inactive); in [11], > 100 µM (inactive); in assay [12], > 100 µM (inactive); in assay [13], > 100 µM (inactive); in [14], 79.3 µM (inactive); in assay [16] it was > 100 µM (inactive). For the same compound, the GI50 in assay [17], in assay [18] and in assay [19] was > 100 µM (inactive) each time.

`O=Cc1ccc2c(c1-c1c(C=O)ccc3c1OCO3)OCO2`: the GI50 in [1], in assay [2], in assay [3], in assay [5], in [6] and in assay [8] was > 100 µM (inactive) in each case. For the same compound, the GI50 in assay [9], in assay [11], in assay [12], in [13], in [14] and in assay [16] was > 100 µM (inactive) each time. Further, the GI50 in assay [17], in [18] and in assay [19] was > 100 µM (inactive) throughout.

As for `O=C(c1cccs1)N1CCCN(C(=O)c2cccs2)C1=S`, the GI50 was > 100 µM (inactive) in assay [1]; 84.7 µM (inactive) in [2]; 26.2 µM (inactive) in assay [3]; > 100 µM (inactive) in assay [4]; > 100 µM (inactive) in assay [5]; > 100 µM (inactive) in [6]. Also, the GI50 in [7], in assay [8], in assay [10], in assay [11], in assay [12] and in assay [14] was > 100 µM (inactive) throughout. The GI50 was > 100 µM (inactive) in assay [15]; > 100 µM (inactive) in [16]; 52.2 µM (inactive) in assay [17]; > 100 µM (inactive) in assay [18]; > 100 µM (inactive) in assay [19].
